Data taken from patent publication US20220046923A1, “HERBICIDAL CINNOLINIUM COMPOUNDS” (SYNGENTA CROP PROTECTION AG, priority 2018, published 2022).

Legend:
Test in all cases: Post-emergence efficacy, glasshouse spray test
Type in all cases: in vivo
[1] = tested on: Digitaria sanguinalis (DIGSA); conditions: Digitaria sanguinalis, post-emergence, 312 h; application rate 1000 g/Ha; evaluated after 13 days; read-out: Control of weed species DIGSA after post-emergence application (100=total damage to plant; 0=no damage to plant)
Outline: (§1)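 Visual damage score 13 days after spraying, 0 (no damage) to 100 (plant killed). Pot-grown plants were treated at 14 days post-sowing with aqueous spray of compound formulated in acetone/IF50, diluted with 0.25% or 1% Empicol ESC70 plus 1% ammonium sulphate; glasshouse kept at 24/16 °C, 14 h light, 65% RH.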

[2] = tested on: Echinochloa crus-galli (ECHCG); conditions: Echinochloa crus-galli, post-emergence, 312 h; application rate 1000 g/Ha; evaluated after 13 days; read-out: Control of weed species ECHCG after post-emergence application (100=total damage to plant; 0=no damage to plant)
Outline: as §1

[3] = tested on: Lolium perenne (LOLPE); conditions: Lolium perenne, post-emergence, 312 h; application rate 1000 g/Ha; evaluated after 13 days; read-out: Control of weed species LOLPE after post-emergence application (100=total damage to plant; 0=no damage to plant)
Outline: as §1

[4] = tested on: Euphorbia heterophylla (EPHHL); conditions: Euphorbia heterophylla, post-emergence, 312 h; application rate 1000 g/Ha; evaluated after 13 days; read-out: Control of weed species EPHHL after post-emergence application (100=total damage to plant; 0=no damage to plant)
Outline: as §1

[5] = tested on: Chenopodium album (CHEAL); conditions: Chenopodium album, post-emergence, 312 h; application rate 1000 g/Ha; evaluated after 13 days; read-out: Control of weed species CHEAL after post-emergence application (100=total damage to plant; 0=no damage to plant)
Outline: as §1

[6] = tested on: Ipomoea hederacea (IPOHE); conditions: Ipomoea hederacea, post-emergence, 312 h; application rate 1000 g/Ha; evaluated after 13 days; read-out: Control of weed species IPOHE after post-emergence application (100=total damage to plant; 0=no damage to plant)
Outline: as §1

[7] = tested on: Setaria faberi (SETFA); conditions: Setaria faberi, post-emergence, 312 h; application rate 1000 g/Ha; evaluated after 13 days; read-out: Control of weed species SETFA after post-emergence application (100=total damage to plant; 0=no damage to plant)
Outline: as §1

[8] = tested on: Eleusine indica (ELEIN); conditions: Eleusine indica, post-emergence, 312 h; application rate 1000 g/Ha; evaluated after 13 days; read-out: Control of weed species ELEIN after post-emergence application (100=total damage to plant; 0=no damage to plant)
Outline: as §1

[9] = tested on: Amaranthus palmeri (AMAPA); conditions: Amaranthus palmeri, post-emergence, 312 h; application rate 1000 g/Ha; evaluated after 13 days; read-out: Control of weed species AMAPA after post-emergence application (100=total damage to plant; 0=no damage to plant)
Outline: as §1

Row | Compound | pest or weed control at 1000 g/ha [1] | pest or weed control at 1000 g/ha [2] | pest or weed control at 1000 g/ha [3] | pest or weed control at 1000 g/ha [4] | pest or weed control at 1000 g/ha [5] | pest or weed control at 1000 g/ha [6] | pest or weed control at 1000 g/ha [7] | pest or weed control at 1000 g/ha [8] | pest or weed control at 1000 g/ha [9]
1 | Cc1c[n+](CC(=O)O)nc2ccccc12 [Compound A66] | 0% | 0% | 0% | 20% | 60% | 30% | 0% | 20% | 20%
2 | O=S(=O)([O-])CCC[n+]1ccc2ccccc2n1 [Compound A67] | 80% | 60% | 80% | 70% | 90% | 80% | 80% | 80% | 100%
3 | COc1ccc2n[n+](CC(=O)[O-])ccc2c1 [Compound A68] | 30% | 50% | 10% | 20% | 50% | 20% | 30% | 20% | 60%
4 | Cc1ccc2n[n+](CC(=O)[O-])ccc2c1 [Compound A69] | 30% | 40% | 0% | 40% | 0% | 0% | 30% | 30% | 30%
5 | O=P(O)(O)CCC[n+]1ccc2ccccc2n1 [Compound A70] | 80% | 40% | 40% | 80% | 90% | 100% | 60% | 90% | 80%
6 | O=P([O-])(O)CC[n+]1ccc2ccccc2n1 [Compound A71] | 80% | 40% | 30% | 90% | 100% | 40% | 70% | 70% | 70%
7 | COP(=O)([O-])CCC[n+]1ccc2ccccc2n1 [Compound A72, 3-cinnolin-2-ium-2-ylpropyl(methoxy)phosphinate] | 50% | 50% | 50% | 50% | 70% | 100% | 60% | 70% | 70%
8 | O=P(O)(O)C[n+]1ccc2ccccc2n1 [Compound A73, cinnolin-2-ium-2-ylmethyl(hydroxy)phosphinate chloride] | 10% | 10% | 10% | 10% | 0% | 30% | 0% | 10% | 10%
9 | O=C([O-])C[C@H](O)C[n+]1ccc2ccccc2n1 [Compound A74, (3S)-4-cinnolin-2-ium-2-yl-3-hydroxy-butanoate] | 0% | 0% | 0% | 10% | 0% | 10% | 0% | 0% | 0%
10 | Cc1cc2ccccc2n[n+]1CCOS(=O)(=O)[O-] [Compound A75] | 70% | 30% | 20% | 40% | 90% | 30% | 30% | 80% | 100%
11 | Cc1cc2ccccc2n[n+]1CCCS(=O)(=O)[O-] [Compound A76] | 60% | 60% | 30% | 50% | 60% | 40% | 60% | 60% | 60%
12 | Cc1cc2ccccc2n[n+]1CCS(=O)(=O)[O-] [Compound A77, 2-(3-methylcinnolin-2-ium-2-yl)ethanesulfonate] | 90% | 30% | 40% | 90% | 100% | 80% | 30% | 90% | 100%
13 | O=S(=O)(O)CC[n+]1ccc2ccc(-c3ccccc3)cc2n1 [Compound A78] | 50% | 20% | 0% | 40% | 0% | 10% | 30% | 70% | 20%
14 | O=S(=O)(O)CC[n+]1cc(C2CC2)c2ccccc2n1 [Compound A79] | 20% | 20% | 10% | 40% | 30% | 40% | 30% | 10% | 60%
15 | O=S(=O)([O-])CC[n+]1ccc2ccc(C(F)(F)F)cc2n1 [Compound A80] | 20% | 20% | 10% | 20% | 20% | 0% | 30% | 30% | 0%
16 | O=S(=O)([O-])CC[n+]1ccc2c(F)cccc2n1 [Compound A81] | 20% | 20% | 20% | 90% | 70% | 10% | 20% | 30% | 40%
17 | O=S(=O)([O-])CC[n+]1ccc2cc(F)ccc2n1 [Compound A82] | 40% | 20% | 30% | 60% | 70% | 40% | 30% | 60% | 90%
18 | O=S(=O)([O-])CC[n+]1ccc2ccc(F)cc2n1 [Compound A83] | 50% | 40% | 50% | 100% | 100% | 60% | 50% | 80% | 100%
19 | O=S(=O)([O-])CC[n+]1ccc2cccc(F)c2n1 [Compound A84] | 60% | 20% | 50% | 100% | 70% | 50% | 50% | 70% | 100%
